The text below walks through data of patent publication US20240299559A1, “COMPOUNDS THAT MEDIATE PROTEIN DEGRADATION AND METHODS OF USE THEREOF” (Monte Rosa Therapeutics, Inc., priority 2021, published 2024).

The target in one assay is CRBN-DDB1 (Homo sapiens, UniProt Q96SW2). Nature of the assay: Compound binding to CRBN by HTRF assay. The settings on record: CRBN-DDB1 2.5 nM, Cy5-Thalidomide 100 nM probe; Ki from geometric mean of IC50 by Cheng-Prustoff transformation. As for the experimental part:
Compound activity was monitored in a Homogenous Time-Resolved Fluorescence (HTRF) assay using 1-[5-({2-[2-(2-{[2-(2,6-dioxopiperidin-3-yl)-1,3-dioxo-2,3-dihydro-1H-isoindol-4-yl]oxy}acetamido)ethoxy]ethyl}carbamoyl)pentyl]-3,3-dimethyl-2-[(1E,3E)-5-[(2E)-1,3,3-trimethyl-5-sulfo-2,3-dihydro-1H-indol-2-ylidene]penta-1,3-dien-1-yl]-3H-indol-1-ium-5-sulfonate as a fluorescent probe. Biochemical assays were conducted in Greiner white 384 well HiBase plates (Cat. No 784075-25) in 10 μL total volume. A one pot detection solution of CRBN-DDB1 (2.5 nM), Anti-His Terbium Cryptate Gold (1×, PerkinElmer Cat. #: 61HI2TLB), and Cy5-Thalidomide (100 nM, Tenova Cat.: T52461) was prepared in 20 mM HEPES, 20 mM NaCl, 0.2 mM TCEP, 0.2 mM EDTA, and 0.005% Tween20 was dispensed to each assay plate. Compounds were stored in dry, ambient temperatures at 10 mM. A 10-point, 1:3 dilution series was prepared from 10 mM stock concentrations in Echo-compatible LDV plates. 10 nL of each compound dilution series was dispensed into assays wells using an Echo 650 (Labcyte inc. USA). 10 nL of 10 mM Lenalidomide was transferred into the active-control wells for the assay and 10 nL of DMSO was transferred into the neutral-control wells. The assay was then allowed to incubate for 30 min at ambient temperature after transferring compound. Plate measurements were taken on a Pherastar FSX (BMG Labtech, Germany) using the HTRF Red filter (Ex. 337 nm, em1:620 nm, em2:665 nm) (Flashes: 50, Integration time: 60-400 us, Z-height: 10 mm, Ratio-multipler: 10,000). The HTRF signal was then subsequently normalized to the neutral and active controls. Analysis and IC50 values were derived using KNIME analytics (KNIME Zurich) transformation and fitting within Collaborative Drug Discovery (Collaborative Drug Discovery USA). Ki was derived from the geometric mean of the IC50 values using the Cheng-Prustoff transformation.
(TR-FRET usually uses a lanthanide donor and a delayed reading to cut background.)

Another assay has as its target T1, CDK2 (Homo sapiens, UniProt P24941).
T1 construct: HEK293 clonal lines with CRISPR KI HiBiT tag on CDK2 proteins; host or cells: HEK293 clonal line with CRISPR knock-in HiBiT on CDK2, stably expressing LgBiT
The experiment in a line: CDK2 HiBiT assay (degradation, Dmax). The format is cell-based. To be noted: HEK293 clonal lines with CRISPR KI HiBiT tag on CDK2, stably expressing LgBiT; 24 hours incubation. As to the method: HEK293 clonal lines with CRISPR KI HiBiT tag on CDK2 proteins and stably expressing LgBiT protein were obtained from Promega (Madison, WI). Cells were plated at 5000 cells per well using Multiflo (BioTek) in 384-well white solid bottom plates (Corning, 3570BC) in 25 ul volume in DMEM media (DMEM, high glucose, HEPES, no phenol red (ThermoFisher Scientific, 21063029)) containing 10% FBS (Corning, 35-075-CV), 1% Penicillin/Streptomycin (ThermoFisher Scientific, 15140-122). Cells were incubated for 16 hours at 37° C., 5% CO2. 75 nL of a compound at 30 μM were dosed into the plate using an Echo® 650 liquid handler (Labcyte). Cells were incubated at 37° C., 5% CO2 for 24 hours. 5 ul of HiBiT Lysis Reagent (Promega, N3030) is added using Combi Multidrop (ThermoFisher Scientific), plates are incubated for 15′ at 37° C., 5% CO2 and then signal was read on a Pherastar FSX using “LUM plus” optic module.
Analysis was performed in Scinamic (Scinamic, Cambridge, MA). Luminescence response (R) was calculated by the formula: response=100*(S−N)/(P−N) where S is the signal of the well, N and P the mean negative and positive control values respectively of the same plate. The luminescence response was then fitted in Scinamic using a 3-parameter agonist logistic fit (hillslope=1, EC50>0, top/bottom unconstrained).
For orientation: HiBiT is a short tag that completes a luciferase, so light tracks the accessible tagged protein.

As usually defined, the Ki is the equilibrium dissociation constant of an inhibitor or competing ligand from its target. Usually Dmax stands for the largest share of the target that was removed. High values mean deep degradation, low ones shallow degradation.

Chain of CRBN-DDB1 (Q96SW2 whole entry): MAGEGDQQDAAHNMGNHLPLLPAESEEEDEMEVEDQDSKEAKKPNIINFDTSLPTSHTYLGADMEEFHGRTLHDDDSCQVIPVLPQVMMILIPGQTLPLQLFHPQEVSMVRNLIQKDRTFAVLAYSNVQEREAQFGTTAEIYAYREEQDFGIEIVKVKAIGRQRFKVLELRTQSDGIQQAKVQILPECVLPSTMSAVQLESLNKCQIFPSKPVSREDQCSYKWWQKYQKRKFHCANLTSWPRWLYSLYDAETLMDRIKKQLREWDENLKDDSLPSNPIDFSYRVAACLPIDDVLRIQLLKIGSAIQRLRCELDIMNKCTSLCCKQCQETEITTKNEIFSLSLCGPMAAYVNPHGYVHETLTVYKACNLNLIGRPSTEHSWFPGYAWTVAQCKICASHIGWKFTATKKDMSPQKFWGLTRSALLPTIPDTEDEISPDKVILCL
Chain of CRBN-DDB1 (Q16531 whole entry partner): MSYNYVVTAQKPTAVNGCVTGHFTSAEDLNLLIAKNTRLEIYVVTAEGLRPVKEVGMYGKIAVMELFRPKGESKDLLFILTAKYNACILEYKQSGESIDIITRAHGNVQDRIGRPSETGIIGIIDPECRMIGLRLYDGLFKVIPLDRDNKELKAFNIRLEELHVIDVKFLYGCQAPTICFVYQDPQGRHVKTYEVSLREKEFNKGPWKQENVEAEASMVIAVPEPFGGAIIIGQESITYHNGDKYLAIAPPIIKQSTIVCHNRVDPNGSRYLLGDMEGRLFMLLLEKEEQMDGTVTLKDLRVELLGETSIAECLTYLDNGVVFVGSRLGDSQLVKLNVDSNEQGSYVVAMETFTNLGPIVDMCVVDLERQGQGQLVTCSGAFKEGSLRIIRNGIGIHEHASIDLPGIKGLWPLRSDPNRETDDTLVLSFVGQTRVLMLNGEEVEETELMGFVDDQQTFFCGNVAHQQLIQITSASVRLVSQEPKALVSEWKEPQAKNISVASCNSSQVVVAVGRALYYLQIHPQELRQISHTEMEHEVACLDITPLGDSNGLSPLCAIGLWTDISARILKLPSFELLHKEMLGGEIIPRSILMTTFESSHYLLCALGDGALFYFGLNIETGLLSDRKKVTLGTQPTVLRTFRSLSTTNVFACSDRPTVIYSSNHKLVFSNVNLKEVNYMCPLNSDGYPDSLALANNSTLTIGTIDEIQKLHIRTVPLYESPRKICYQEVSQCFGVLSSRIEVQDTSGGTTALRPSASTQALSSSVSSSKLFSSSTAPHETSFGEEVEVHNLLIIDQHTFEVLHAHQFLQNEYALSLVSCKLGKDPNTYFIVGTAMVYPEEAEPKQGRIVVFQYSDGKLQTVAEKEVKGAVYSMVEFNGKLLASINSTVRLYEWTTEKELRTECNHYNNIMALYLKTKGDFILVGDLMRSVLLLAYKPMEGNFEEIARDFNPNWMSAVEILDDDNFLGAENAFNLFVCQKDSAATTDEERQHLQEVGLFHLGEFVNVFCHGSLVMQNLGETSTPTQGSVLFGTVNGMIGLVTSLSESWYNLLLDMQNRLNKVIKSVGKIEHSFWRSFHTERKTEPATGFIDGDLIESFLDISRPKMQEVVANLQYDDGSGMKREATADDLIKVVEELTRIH

The compound `O=C1CCC(N2Cc3ccc(CNC(=O)OCCc4ccccc4)cc3C2=O)C(=O)N1` (stereo not drawn) [Compound 22, 2-phenylethyl N-{[2-(2,6-dioxopiperidin-3-yl)-3-oxo-2,3-dihydro-1H-isoindol-5-yl]methyl}carbamate] came in with a Ki at CRBN-DDB1 not above 100 nM. The compound further returned a Dmax on CDK2 of 10 to 50%.
For `O=C1CCC(N2Cc3ccc(CNC(=O)OCCCc4ccccc4)cc3C2=O)C(=O)N1` (stereo not drawn) [Compound 23, 3-phenylpropyl N-{[2-(2,6-dioxopiperidin-3-yl)-3-oxo-2,3-dihydro-1H-isoindol-5-yl]methyl}carbamate], in that order: 100 to 1000 nM and 10 to 50%.
For `O=C1CCC(N2Cc3ccc(CNC(=O)OCc4ccc(Cl)cc4)cc3C2=O)C(=O)N1` (stereo not drawn) [Compound 24, (4-chlorophenyl)methyl N-{[2-(2,6-dioxopiperidin-3-yl)-3-oxo-2,3-dihydro-1H-isoindol-5-yl]methyl}carbamate], in that order: not above 100 nM and not above 10%.
Consider `COc1ccc(COC(=O)NCc2ccc3c(c2)C(=O)N(C2CCC(=O)NC2=O)C3)cc1` (stereo not drawn) [Compound 25, (4-methoxyphenyl)methyl N-{[2-(2,6-dioxopiperidin-3-yl)-3-oxo-2,3-dihydro-1H-isoindol-5-yl]methyl}carbamate], for which the inhibitory constant (Ki) at CRBN-DDB1 is not above 100 nM. Besides, the Dmax on CDK2 was 10 to 50%.
With `O=C1CCC(N2Cc3ccc(CNC(=O)OCc4ccc([N+](=O)[O-])cc4)cc3C2=O)C(=O)N1` (stereo not drawn) [Compound 26, (4-nitrophenyl)methyl N-{[2-(2,6-dioxopiperidin-3-yl)-3-oxo-2,3-dihydro-1H-isoindol-5-yl]methyl}carbamate], the Ki at CRBN-DDB1 fell in the range of 100 to 1000 nM. The compound further showed a Dmax on CDK2 of 10 to 50%.
For `COc1ccc2cc(COC(=O)NCc3ccc4c(c3)C(=O)N(C3CCC(=O)NC3=O)C4)ccc2c1` (stereo not drawn) [Compound 28, (6-methoxynaphthalen-2-yl)methyl N-{[2-(2,6-dioxopiperidin-3-yl)-3-oxo-2,3-dihydro-1H-isoindol-5-yl]methyl}carbamate], in that order: 100 to 1000 nM and not above 10%.
For `Cc1ccc(COC(=O)NCc2ccc3c(c2)C(=O)N(C2CCC(=O)NC2=O)C3)cc1` (stereo not drawn) [Compound 29, (4-methylphenyl)methyl N-{[2-(2,6-dioxopiperidin-3-yl)-3-oxo-2,3-dihydro-1H-isoindol-5-yl]methyl}carbamate], in that order: not above 100 nM and not above 10%.
The matching figures for `Cc1ccc(COC(=O)NCc2ccc3c(c2)C(=O)N(C2CCC(=O)NC2=O)C3)c(C)c1` (stereo not drawn) [Compound 30, (2,4-dimethylphenyl)methyl N-{[2-(2,6-dioxopiperidin-3-yl)-3-oxo-2,3-dihydro-1H-isoindol-5-yl]methyl}carbamate]: 100 to 1000 nM and 10 to 50%.
Take `O=C1CCC(N2Cc3ccc(CNC(=O)OCc4cccc(C(F)(F)F)c4)cc3C2=O)C(=O)N1` (stereo not drawn) [Compound 31, [3-(trifluoromethyl)phenyl]methyl N-{[2-(2,6-dioxopiperidin-3-yl)-3-oxo-2,3-dihydro-1H-isoindol-5-yl]methyl}carbamate]: the Ki on CRBN-DDB1 is not above 100 nM. The Dmax on CDK2 is 10 to 50%.
On to `O=C1CCC(N2Cc3ccc(CNC(=O)OCc4cccc([N+](=O)[O-])c4)cc3C2=O)C(=O)N1` (stereo not drawn) [Compound 32, (3-nitrophenyl)methyl N-{[2-(2,6-dioxopiperidin-3-yl)-3-oxo-2,3-dihydro-1H-isoindol-5-yl]methyl}carbamate], for which the inhibitory constant (Ki) on CRBN-DDB1 lay within 100 to 1000 nM. For the same compound, the Dmax at CDK2 was not above 10%.
For `O=C1CCC(N2Cc3ccc(CNC(=O)OCc4ccc(OC(F)F)cc4)cc3C2=O)C(=O)N1` (stereo not drawn) [Compound 33, [4-(difluoromethoxy)phenyl]methyl N-{[2-(2,6-dioxopiperidin-3-yl)-3-oxo-2,3-dihydro-1H-isoindol-5-yl]methyl}carbamate], in that order: not above 100 nM and 10 to 50%.
The matching figures for `CCOc1c(C)cc(COC(=O)NCc2ccc3c(c2)C(=O)N(C2CCC(=O)NC2=O)C3)cc1C` (stereo not drawn) [Compound 34, (4-ethoxy-3,5-dimethylphenyl)methyl N-{[2-(2,6-dioxopiperidin-3-yl)-3-oxo-2,3-dihydro-1H-isoindol-5-yl]methyl}carbamate]: not above 100 nM and 10 to 50%.
The matching figures for `CSc1cccc(COC(=O)NCc2ccc3c(c2)C(=O)N(C2CCC(=O)NC2=O)C3)c1` (stereo not drawn) [Compound 35, [3-(methylsulfanyl)phenyl]methyl N-{[2-(2,6-dioxopiperidin-3-yl)-3-oxo-2,3-dihydro-1H-isoindol-5-yl]methyl}carbamate]: not above 100 nM and 10 to 50%.
With `CCC(C)(C)c1ccc(COC(=O)NCc2ccc3c(c2)C(=O)N(C2CCC(=O)NC2=O)C3)cc1` (stereo not drawn) [Compound 36, [4-(2-methylbutan-2-yl)phenyl]methyl N-{[2-(2,6-dioxopiperidin-3-yl)-3-oxo-2,3-dihydro-1H-isoindol-5-yl]methyl}carbamate], at CRBN-DDB1, the inhibitory constant (Ki) lay within 100 to 1000 nM. On CDK2, this compound returned a Dmax of 10 to 50%.
For `O=C1CCC(N2Cc3ccc(CNC(=O)OCc4ccc(C5CCCC5)cc4)cc3C2=O)C(=O)N1` (stereo not drawn) [Compound 37, (4-cyclopentylphenyl)methyl N-{[2-(2,6-dioxopiperidin-3-yl)-3-oxo-2,3-dihydro-1H-isoindol-5-yl]methyl}carbamate], the Ki on CRBN-DDB1 is not above 100 nM. This compound had a Dmax on CDK2 of 10 to 50%.
Consider `CC(C)Oc1cccc(COC(=O)NCc2ccc3c(c2)C(=O)N(C2CCC(=O)NC2=O)C3)c1` (stereo not drawn) [Compound 38, [3-(propan-2-yloxy)phenyl]methyl N-{[2-(2,6-dioxopiperidin-3-yl)-3-oxo-2,3-dihydro-1H-isoindol-5-yl]methyl}carbamate], for which the Ki at CRBN-DDB1 was in the range of 100 to 1000 nM. The compound also yielded a Dmax on CDK2 of 10 to 50%.
For `C#CCOc1ccc(COC(=O)NCc2ccc3c(c2)C(=O)N(C2CCC(=O)NC2=O)C3)cc1` (stereo not drawn) [Compound 39, [4-(prop-2-yn-1-yloxy)phenyl]methyl N-{[2-(2,6-dioxopiperidin-3-yl)-3-oxo-2,3-dihydro-1H-isoindol-5-yl]methyl}carbamate], in that order: not above 100 nM and 10 to 50%.
`O=C1CCC(N2Cc3ccc(CNC(=O)OCc4ccc(OCC5CC5)cc4)cc3C2=O)C(=O)N1` (stereo not drawn) [Compound 40, [4-(cyclopropylmethoxy)phenyl]methyl N-{[2-(2,6-dioxopiperidin-3-yl)-3-oxo-2,3-dihydro-1H-isoindol-5-yl]methyl}carbamate]: the inhibition constant Ki on CRBN-DDB1 is not above 100 nM. The compound also came in with a Dmax at CDK2 of 10 to 50%.
On CRBN-DDB1, `CCOc1ccc(COC(=O)NCc2ccc3c(c2)C(=O)N(C2CCC(=O)NC2=O)C3)c(C)c1` (stereo not drawn) [Compound 41, (4-ethoxy-2-methylphenyl)methyl N-{[2-(2,6-dioxopiperidin-3-yl)-3-oxo-2,3-dihydro-1H-isoindol-5-yl]methyl}carbamate] showed an inhibitory constant (Ki) of 100 to 1000 nM. At CDK2, this compound had a Dmax of 10 to 50%.
For `O=C1CCC(N2Cc3ccc(CNC(=O)OCc4ccc(CC(F)(F)F)cc4)cc3C2=O)C(=O)N1` (stereo not drawn) [Compound 42, [4-(2,2,2-trifluoroethyl)phenyl]methyl N-{[2-(2,6-dioxopiperidin-3-yl)-3-oxo-2,3-dihydro-1H-isoindol-5-yl]methyl}carbamate], in that order: not above 100 nM and 10 to 50%.
The matching figures for `CCCc1ccc(COC(=O)NCc2ccc3c(c2)C(=O)N(C2CCC(=O)NC2=O)C3)cc1` (stereo not drawn) [Compound 43, (4-propylphenyl)methyl N-{[2-(2,6-dioxopiperidin-3-yl)-3-oxo-2,3-dihydro-1H-isoindol-5-yl]methyl}carbamate]: not above 100 nM and 10 to 50%.
